Measurements from patent US20250020658A1, “METHODS FOR SYNTHESIZING AND IDENTIFYING SYNTHETIC PROTEINS INCLUDING TARGETED THERAPEUTICS FOR NEURODEGENERATIVE DISORDERS BASED ON BIO-MIMICRY APPROACHES” (University of Denver, priority 2023, published 2025).
“Also recorded” adds a separate entry of the source. Where two headings read alike, the source gives them in different places.

Assays:
[1] = target: α-Synuclein (αS) aggregation (Homo sapiens, UniProt P37840); assay: Thioflavin T (ThT) dye-based aggregation assay against aggregation of αS; format: biochemical; conditions: lower ThT intensity = higher antagonist activity
Description: The resulting dimers are again evaluated with a ThT assay (step (g)), and the best performing dimer is selected in a step (h). The process is repeated to screen for the best performing trimer (step (i)), and so on.
In particular, FIG. 21 is a graph comparing the relative ThT intensities of various molecules synthesized using the 2D FAST process, in accordance with embodiments. The lower the ThT intensity, the higher the antagonist activity of ligands against the target protein (synuclein aggregation in this example).

[2] = test system: C. elegans PD models; assay: C. elegans Parkinson's disease models; format: in vivo; conditions: for rescue of PD phenotypes: multiple C. elegans PD models: degeneration of dopaminergic neurons, increase in reactive oxygen species, reduced motility
Description: Using OPs as the basis, the 2D FAST approach was used to identify potent antagonists of α-Synuclein (αS) aggregation, a process central to Parkinson's disease (PD) as discussed above. […] (See, for example, “A 2D Fragment-Assisted Protein Mimetic Approach to Rescue α-Synuclein Aggregation Mediated Early and Post-Disease Parkinson's Phenotypes,” bioRxiv preprint posted 2022 Jul. 13, doi: https://doi.org/10.1101/2022.07.11.499659)

[3] = Parallel Artificial Membrane Permeability Assay (PAMPA); format: in vitro ADME; conditions: NS163 compared with NS132
Description: FIG. 22 is a graph comparing the cell permeability of various ligands identified and synthesized using the 2D FAST approach and assessed using the Parallel Artificial Membrane Permeability Assay (PAMPA) technique. […] FIG. 25 is a graph comparing the relative ThT intensities of various molecules synthesized using the 2D FAST process in the presence of αS, in accordance with embodiments.

[4] = mouse model; cited from earlier work
[5] = target: αS oligomers (Homo sapiens, UniProt P37840); conditions: pathological high molecular weight αS oligomers vs αS monomers (native conformation), cited from earlier work

SMILES: Cc1ccc(NC(=O)c2ccc([N+](=O)[O-])c(NCC3CCCCC3)n2)c(OCC(=O)O)n1 [NS55]
- antagonist activity against αS aggregation [1]: potent inhibitor of α-Synuclein aggregation

SMILES: Cc1ccc(NC(=O)c2ccc(NC(=O)c3ccc([N+](=O)[O-])c(NCCc4c[nH]c5ccccc45)n3)c(NCC3CCCCC3)n2)c(OCC(=O)O)n1 [NS132]
- rescue of PD phenotypes [2]: very effective ligands in rescuing PD phenotypes
- antagonist activity against αS aggregation [1]: most potent tripyridyl; also recorded: antagonist of the multiple facets of αS aggregation

SMILES: Cc1ccc(NC(=O)c2ccc(NC(=O)c3ccc([N+](=O)[O-])c(NCCc4c[nH]c5ccccc45)n3)c(NCC3CCCCC3)n2)c(OCC(=O)NO)n1 [NS163]
- cell permeability [3]: increased cell permeability; also recorded: better cell permeability
- activity within a C. elegans Parkinson's disease model ([2]; NS163 as enhanced version of NS132): increased cell permeability and activity
- rescue of PD phenotypes [2]: very effective ligands in rescuing PD phenotypes
- antagonist activity against αS aggregation [1]: potent antagonist of α-Synuclein aggregation; also recorded: without sacrificing activity

SMILES: COC(=O)c1cc(OCC(=O)O)c2cccc(NC(=O)c3cc(OC(C)C)c4cccc(NC(=O)c5cc(OCC(=O)O)c6cccc(NC(=O)c7cc(OC(C)C)c8cccc([N+](=O)[O-])c8n7)c6n5)c4n3)c2n1 [SK-129]
- crossing of the BBB [4]: efficiently crosses the BBB
- toxicity [4]: without demonstrating any toxicity
- affinity to αS oligomers relative to αS monomers [5]: 10 fold
- affinity to αS oligomers relative to αS monomers ([5]; listed as SK-α129): ten-fold higher affinity
